Measurements from patent US9611267B2, “Substituted tricyclic compounds as FGFR inhibitors” (Incyte Corporation, priority 2012, dated 2017).

Key:
Format in all cases: biochemical
FGFR3 = FGFR3 (Homo sapiens (Human), UniProt P22607); assay: FGFR enzymatic assay (FRET peptide phosphorylation), FGFR3; settings: FGFR3 enzyme (Millipore), ATP 140 μM
How it was run: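 FRET assay of peptide phosphorylation by FGFR3 in HEPES pH 7.5 buffer with MgCl2, EGTA, Tween-20 and DTT. Enzyme was pre-incubated 5-10 min with compound, and the reaction ran 1 hr at 25° C. IC50 came from a variable-slope sigmoidal fit.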

FGFR2 = FGFR2 (Homo sapiens (Human), UniProt P21802); assay: FGFR enzymatic assay (FRET peptide phosphorylation), FGFR2; settings: FGFR2 enzyme 0.01 nM, ATP 100 μM
How it was run: (§1)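 Recombinant kinase was pre-incubated 5–10 min with serially diluted inhibitor in HEPES buffer (10 mM MgCl2, 5 mM DTT, pH 7.5; buffer described for FGFR3). Peptide phosphorylation ran 1 h at 25 °C and was detected by FRET after ~1 h equilibration. IC50 values come from variable-slope sigmoidal fits.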

FGFR1 = FGFR1 (Homo sapiens (Human), UniProt P11362); assay: FGFR enzymatic assay (FRET peptide phosphorylation), FGFR1; settings: FGFR1 enzyme 0.02 nM, ATP 210 μM
How it was run: as §1

Measured: IC50

Sequence of FGFR1 (P11362 22-822): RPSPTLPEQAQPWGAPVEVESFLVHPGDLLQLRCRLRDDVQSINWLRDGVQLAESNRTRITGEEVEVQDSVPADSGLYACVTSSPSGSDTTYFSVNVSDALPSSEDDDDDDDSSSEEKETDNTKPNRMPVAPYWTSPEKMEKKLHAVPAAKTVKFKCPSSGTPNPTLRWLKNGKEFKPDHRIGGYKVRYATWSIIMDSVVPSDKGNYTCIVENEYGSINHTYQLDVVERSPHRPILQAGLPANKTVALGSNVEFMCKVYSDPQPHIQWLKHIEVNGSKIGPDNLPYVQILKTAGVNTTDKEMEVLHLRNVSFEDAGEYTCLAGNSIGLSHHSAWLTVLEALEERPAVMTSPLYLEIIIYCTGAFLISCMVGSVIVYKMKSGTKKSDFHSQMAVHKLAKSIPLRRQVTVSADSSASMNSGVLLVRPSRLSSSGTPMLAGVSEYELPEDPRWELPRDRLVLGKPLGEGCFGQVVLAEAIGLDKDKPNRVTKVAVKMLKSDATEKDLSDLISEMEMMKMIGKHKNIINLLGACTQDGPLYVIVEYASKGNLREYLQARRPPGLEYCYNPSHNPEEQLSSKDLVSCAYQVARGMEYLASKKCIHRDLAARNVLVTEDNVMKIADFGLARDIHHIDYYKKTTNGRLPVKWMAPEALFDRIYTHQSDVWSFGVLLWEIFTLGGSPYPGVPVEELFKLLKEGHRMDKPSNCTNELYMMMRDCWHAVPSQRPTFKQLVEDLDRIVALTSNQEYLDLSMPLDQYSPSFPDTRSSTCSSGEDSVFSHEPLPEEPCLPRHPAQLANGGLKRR
Sequence of FGFR2 (P21802 22-821): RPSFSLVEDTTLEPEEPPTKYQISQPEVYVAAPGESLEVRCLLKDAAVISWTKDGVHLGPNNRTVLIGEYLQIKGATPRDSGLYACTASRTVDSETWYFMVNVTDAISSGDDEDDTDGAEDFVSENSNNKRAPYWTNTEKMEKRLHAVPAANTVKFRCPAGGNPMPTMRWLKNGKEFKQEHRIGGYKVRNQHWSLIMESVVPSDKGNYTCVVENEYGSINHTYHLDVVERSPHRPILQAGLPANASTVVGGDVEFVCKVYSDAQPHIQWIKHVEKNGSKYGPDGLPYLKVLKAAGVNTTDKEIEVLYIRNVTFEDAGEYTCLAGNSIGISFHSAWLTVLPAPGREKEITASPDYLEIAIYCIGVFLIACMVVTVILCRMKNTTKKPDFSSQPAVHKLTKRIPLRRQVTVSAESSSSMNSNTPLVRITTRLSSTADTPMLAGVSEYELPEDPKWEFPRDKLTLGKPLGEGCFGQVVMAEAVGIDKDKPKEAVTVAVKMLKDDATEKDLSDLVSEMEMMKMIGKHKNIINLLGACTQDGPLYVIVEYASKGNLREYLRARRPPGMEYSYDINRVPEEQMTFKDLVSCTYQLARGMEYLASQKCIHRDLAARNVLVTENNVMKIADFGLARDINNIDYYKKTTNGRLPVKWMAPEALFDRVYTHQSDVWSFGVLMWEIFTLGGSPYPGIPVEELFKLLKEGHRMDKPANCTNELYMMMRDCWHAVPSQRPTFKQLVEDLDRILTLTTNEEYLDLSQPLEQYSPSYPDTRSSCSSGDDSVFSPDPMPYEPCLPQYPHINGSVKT
Sequence of FGFR3 (P22607 23-806): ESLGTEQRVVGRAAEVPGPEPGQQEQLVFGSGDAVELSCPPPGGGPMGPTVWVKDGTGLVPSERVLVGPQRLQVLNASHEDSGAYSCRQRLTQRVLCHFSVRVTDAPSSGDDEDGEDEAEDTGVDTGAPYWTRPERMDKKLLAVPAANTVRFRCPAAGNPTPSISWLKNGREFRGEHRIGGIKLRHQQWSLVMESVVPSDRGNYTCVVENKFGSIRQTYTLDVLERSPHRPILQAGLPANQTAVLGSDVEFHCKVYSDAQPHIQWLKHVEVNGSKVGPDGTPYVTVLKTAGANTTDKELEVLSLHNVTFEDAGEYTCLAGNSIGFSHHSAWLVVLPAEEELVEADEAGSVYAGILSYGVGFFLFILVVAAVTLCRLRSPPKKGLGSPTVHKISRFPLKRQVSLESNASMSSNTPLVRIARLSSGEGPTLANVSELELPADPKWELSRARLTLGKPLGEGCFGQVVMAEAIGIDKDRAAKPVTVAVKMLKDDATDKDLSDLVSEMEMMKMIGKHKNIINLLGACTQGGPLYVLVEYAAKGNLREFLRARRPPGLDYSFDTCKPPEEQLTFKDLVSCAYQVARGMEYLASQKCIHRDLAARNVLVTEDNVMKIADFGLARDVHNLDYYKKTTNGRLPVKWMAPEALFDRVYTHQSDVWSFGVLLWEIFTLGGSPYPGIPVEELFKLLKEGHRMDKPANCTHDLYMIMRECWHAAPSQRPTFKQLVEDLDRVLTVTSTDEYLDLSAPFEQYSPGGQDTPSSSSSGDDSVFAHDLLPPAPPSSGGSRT

COc1cc(OC)c(F)c(N2Cc3cnc4[nH]c(CCN5CCOCC5)cc4c3N(c3cccc(F)c3F)C2=O)c1F [Example 222, 3-(2,6-difluoro-3,5-dimethoxyphenyl)-1-(2,3-difluorophenyl)-8-(2-morpholin-4-ylethyl)-1,3,4,7-tetrahydro-2H-pyrrolo[3′,2′:5,6]pyrido[4,3-d]pyrimidin-2-one]
< 100 nM: all assays above

COc1cc(OC)c(F)c(N2Cc3cnc4[nH]c(CCN5CCN(C)CC5)cc4c3N(c3cccc(F)c3F)C2=O)c1F [Example 223, 3-(2,6-difluoro-3,5-dimethoxyphenyl)-1-(2,3-difluorophenyl)-8-[2-(4-methylpiperazin-1-yl)ethyl]-1,3,4,7-tetrahydro-2H-pyrrolo[3′,2′:5,6]pyrido[4,3-d]pyrimidin-2-one]
< 100 nM: all assays above

CCN1CCN(CCc2cc3c4c(cnc3[nH]2)CN(c2c(F)c(OC)cc(OC)c2F)C(=O)N4c2cccc(F)c2F)CC1 [Example 224, 3-(2,6-difluoro-3,5-dimethoxyphenyl)-1-(2,3-difluorophenyl)-8-[2-(4-ethylpiperazin-1-yl)ethyl]-1,3,4,7-tetrahydro-2H-pyrrolo[3′,2′:5,6]pyrido[4,3-d]pyrimidin-2-one]
< 100 nM: all assays above

COc1cc(OC)c(F)c(N2Cc3cnc4[nH]c(CCN5CCOCC5)cc4c3N(c3ccc(F)cc3)C2=O)c1F [Example 225, 3-(2,6-difluoro-3,5-dimethoxyphenyl)-1-(4-fluorophenyl)-8-(2-morpholin-4-ylethyl)-1,3,4,7-tetrahydro-2H-pyrrolo[3′,2′:5,6]pyrido[4,3-d]pyrimidin-2-one]
< 100 nM: all assays above

COc1cc(OC)c(F)c(N2Cc3cnc4[nH]c(CCN5CCN(C)CC5)cc4c3N(c3ccc(F)cc3)C2=O)c1F [Example 226, 3-(2,6-difluoro-3,5-dimethoxyphenyl)-1-(4-fluorophenyl)-8-[2-(4-methylpiperazin-1-yl)ethyl]-1,3,4,7-tetrahydro-2H-pyrrolo[3′,2′:5,6]pyrido[4,3-d]pyrimidin-2-one]
< 100 nM: all assays above

COc1cc(OC)c(F)c(N2Cc3cnc4[nH]c(CCN5CCOCC5)cc4c3N(c3cccc(F)c3)C2=O)c1F [Example 227, 3-(2,6-difluoro-3,5-dimethoxyphenyl)-1-(3-fluorophenyl)-8-(2-morpholin-4-ylethyl)-1,3,4,7-tetrahydro-2H-pyrrolo[3′,2′:5,6]pyrido[4,3-d]pyrimidin-2-one]
< 100 nM: all assays above

COc1cc(OC)c(F)c(N2Cc3cnc4[nH]c(CCN5CCN(C)CC5)cc4c3N(c3cccc(F)c3)C2=O)c1F [Example 228, 3-(2,6-difluoro-3,5-dimethoxyphenyl)-1-(3-fluorophenyl)-8-[2-(4-methylpiperazin-1-yl)ethyl]-1,3,4,7-tetrahydro-2H-pyrrolo[3′,2′:5,6]pyrido[4,3-d]pyrimidin-2-one]
< 100 nM: all assays above

CCN1CCN(CCc2cc3c4c(cnc3[nH]2)CN(c2c(F)c(OC)cc(OC)c2F)C(=O)N4c2cccc(F)c2)CC1 [Example 229, 3-(2,6-difluoro-3,5-dimethoxyphenyl)-1-(3-fluorophenyl)-8-[2-(4-ethylpiperazin-1-yl)ethyl]-1,3,4,7-tetrahydro-2H-pyrrolo[3′,2′:5,6]pyrido[4,3-d]pyrimidin-2-one]
< 100 nM: all assays above

CCN1C(=O)N(c2c(F)c(OC)cc(OC)c2F)Cc2cnc3[nH]c(CCN4CC(C#N)C4)cc3c21 [Example 230, 1-{2-[3-(2,6-difluoro-3,5-dimethoxyphenyl)-1-ethyl-2-oxo-2,3,4,7-tetrahydro-1H-pyrrolo[3′,2′:5,6]pyrido[4,3-d]pyrimidin-8-yl]ethyl}azetidine-3-carbonitrile]
< 100 nM: all assays above

CCN1C(=O)N(c2c(F)c(OC)cc(OC)c2F)Cc2cnc3[nH]c(CCN4CC(F)C4)cc3c21 [Example 231, 3-(2,6-difluoro-3,5-dimethoxyphenyl)-1-ethyl-8-[2-(3-fluoroazetidin-1-yl)ethyl]-1,3,4,7-tetrahydro-2H-pyrrolo[3′,2′:5,6]pyrido[4,3-d]pyrimidin-2-one]
< 100 nM: all assays above

COc1cc(OC)c(F)c(N2Cc3cnc4[nH]c(CN5CCOCC5)cc4c3N(CCF)C2=O)c1F [Example 232, 3-(2,6-difluoro-3,5-dimethoxyphenyl)-1-(2-fluoroethyl)-8-(morpholin-4-ylmethyl)-1,3,4,7-tetrahydro-2H-pyrrolo[3′,2′:5,6]pyrido[4,3-d]pyrimidin-2-one]
< 100 nM: all assays above

COc1cc(OC)c(F)c(N2Cc3cnc4[nH]c(CN5CCN(C)CC5)cc4c3N(CCF)C2=O)c1F [Example 233, 3-(2,6-difluoro-3,5-dimethoxyphenyl)-1-(2-fluoroethyl)-8-[(4-methylpiperazin-1-yl)methyl]-1,3,4,7-tetrahydro-2H-pyrrolo[3′,2′:5,6]pyrido[4,3-d]pyrimidin-2-one]
< 100 nM: all assays above
